This note sets out measurements from patent US20080153862A1, “SPIROPIPERIDINE DERIVATIVES” (priority 2006, published 2008).

The target in the test is T1, human V1a receptor (Homo sapiens, UniProt P37288).
T1 construct: expressed in transfected cells; host or cells: HEK293 cells, transiently transfected; membrane preparation
T1 sequence (P37288 whole entry): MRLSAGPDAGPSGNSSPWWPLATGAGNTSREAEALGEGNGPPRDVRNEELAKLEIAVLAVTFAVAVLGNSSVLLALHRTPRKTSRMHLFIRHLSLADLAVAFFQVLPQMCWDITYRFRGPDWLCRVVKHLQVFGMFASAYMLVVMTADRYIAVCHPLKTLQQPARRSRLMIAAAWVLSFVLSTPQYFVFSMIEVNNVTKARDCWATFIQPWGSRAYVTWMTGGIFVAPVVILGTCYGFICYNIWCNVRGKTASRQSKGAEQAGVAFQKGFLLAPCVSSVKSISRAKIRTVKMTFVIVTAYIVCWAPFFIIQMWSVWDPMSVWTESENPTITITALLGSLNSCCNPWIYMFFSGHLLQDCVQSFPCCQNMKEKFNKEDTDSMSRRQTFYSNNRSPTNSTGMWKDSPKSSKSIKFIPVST
Description: V1a activity: human V1a receptor binding (3H-Vasopressin SPA, HEK293 membranes). The settings on record: membranes of HEK293 cells transiently transfected with human V1a receptor, Ki by Cheng-Prussoff equation, read-out: pKi hV1a (converted). Here is the method:
The human V1a receptor was cloned by RT-PCR from total human liver RNA. The coding sequence was subcloned in an expression vector after sequencing to confirm the identity of the amplified sequence. […] Cell membranes were prepared from HEK293 cells transiently transfected with the expression vector and grown in 20 liter fermenters with the following protocol.
50 g of cells were resuspended in 30 ml freshly prepared ice cold Lysis buffer (50 mM HEPES, 1 mM EDTA, 10 mM MgCl2 adjusted to pH=7.4+complete cocktail of protease inhibitor (Roche Diagnostics)); homogenized with Polytron for 1 min; and sonicated on ice for 2×2 minutes at 80% intensity (Vibracell sonicator). The preparation was centrifuged 20 min at 500 g at 4° C., the pellet was discarded and the supernatant centrifuged 1 hour at 43′000 g at 4° C. (19′000 rpm). The pellet was resuspended in 12.5 ml Lysis buffer+12.5 ml Sucrose 20% and homogenized using a Polytron for 1-2 min. The protein concentration was determined by the Bradford method, and aliquots were stored at −80° C. until use. For binding studies 60 mg Yttrium silicate SPA beads (Amersham) were mixed with an aliquot of membrane in binding buffer (50 mM Tris, 120 mM NaCl, 5 mM KCl, 2 mM CaCl2, 10 mM MgCl2) for 15 minutes with mixing. 50 ul of bead/membrane mixture was then added to each well of a 96 well plate, followed by 50 ul of 4 nM 3H-Vasopressin (American Radiolabeled Chemicals). For total binding measurement 100 ul of binding buffer were added to the respective wells, for non-specific binding 100 ul of 8.4 mM cold vasopressin and for compound testing 100 ul of a serial dilution of each compound in 2% DMSO. The plate was incubated 1 h at room temperature, centrifuged 1 min at 1000 g and counted on a Packard Top-Count. Non-specific binding counts were subtracted from each well and data was normalized to the maximum specific binding set at 100%. To calculate an IC 50 the curve was fitted using a non-linear regression model (XLfit), and the Ki was calculated using the Cheng-Prussoff equation.
Consider `COc1ccc2c(c1)C1(CCN(C(=O)c3ccc4ccccc4c3)CC1)OC2=O` [Example 1, 6-Methoxy-1′-(2-naphthoyl)-3H-spiro[2-benzofuran-1,4′-piperidin]-3-one], for which the Ki is 8.32 nM.

Regarding `O=C1OC2(CCN(C(=O)c3ccc(Cl)c(Cl)c3)CC2)c2ccccc21` [Example 6, 1′-(3,4-Dichlorobenzoyl)-3H-spiro[2-benzofuran-1,4′-piperidin]-3-one], the Ki was 19.1 nM.

With `COc1ccc2c(c1)C1(CCN(C(=O)c3ccc(Cl)c(Cl)c3)CC1)OC2=O` [Example 7, 1′-(3,4-Dichlorobenzoyl)-6-methoxy-3H-spiro[2-benzofuran-1,4′-piperidin]-3-one], the Ki is 28.8 nM.

In the case of `COc1ccc2c(c1)C(=O)OC21CCN(C(=O)c2ccc(Cl)c(Cl)c2)CC1` [Example 9, 1′-(3,4-Dichlorobenzoyl)-5-methoxy-3H-spiro[2-benzofuran-1,4′-piperidin]-3-one], the Ki is 47.9 nM.

With `O=C1OC2(CCN(C(=O)c3ccc(Cl)c(Cl)c3)CC2)c2ccc(F)cc21` [Example 11, 1′-(3,4-Dichlorobenzoyl)-5-fluoro-3H-spiro[2-benzofuran-1,4′-piperidin]-3-one], the Ki is 29.5 nM.

As to `O=C1OC2(CCN(C(=O)c3ccc(Cl)c(Cl)c3)CC2)c2cc(OCCO)ccc21` [Example 12, 1′-(3,4-Dichlorobenzoyl)-6-(2-hydroxyethoxy)-3H-spiro[2-benzofuran-1,4′-piperidin]-3-one], the Ki was 21.9 nM.

As for `CC(C)(C)c1ccc(C(=O)N2CCC3(CC2)OCc2ccccc23)cc1` [Example 25, 1′-(4-tert-Butylbenzoyl)-3H-spiro[2-benzofuran-1,4′-piperidine]], the Ki is 63.1 nM.

`COc1cc(C(=O)N2CCC3(CC2)OCc2ccccc23)c2[nH]ccc2c1` [Example 27, 1′-[(5-Methoxy-1H-indol-7-yl)carbonyl]-3H-spiro[2-benzofuran-1,4′-piperidine]]: the Ki is 50.1 nM.

With `O=C(c1ccc2ccccc2c1)N1CCC2(CC1)C(=O)Nc1ccc(Br)cc12` [Example 33, 5-Bromo-1′-(2-naphthoyl)spiro[indole-3,4′-piperidin]-2(1H)-one], the Ki was 110 nM.

Take `O=C(c1ccc2ccccc2c1)N1CCC2(C=Cc3ccccc32)CC1` [Example 36, 1′-(2-Naphthoyl)spiro[indene-1,4′-piperidine]]: the Ki was 89.1 nM.

`O=C(c1ccc(Cl)c(Cl)c1)N1CCC2(CCc3ccccc32)CC1` [Example 42, 1′-(3,4-Dichlorobenzoyl)-2,3-dihydrospiro[indene-1,4′-piperidine]]: the Ki was 112 nM.
